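In this assay, cells in 96-well plates receive the compound at five concentrations for 48 hours. Endpoints are linearly interpolated between the surrounding concentrations. GI50 is the concentration that inhibits growth by half.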 Calls of active or inactive are those of the source. Cut-off read from the data, not from the text of the source: active = GI50 up to about 1.1 µM and inactive = higher.
Experiments:
Assay in all cases: DTP human tumour cell line panel, 48 h
786-0 = system: 786-0
A498 = system: A498
ACHN = system: ACHN
BT-549 = system: BT-549
CAKI-1 = system: CAKI-1
CCRF-CEM = system: CCRF-CEM
COLO 205 = system: COLO 205
DU-145 = system: DU-145
HCC 2998 = system: HCC 2998
HCT-116 = system: HCT-116
HCT-15 = system: HCT-15
HOP-92 = system: HOP-92
KM12 = system: KM12
LOX IMVI = system: LOX IMVI
MDA-MB-231 = system: MDA-MB-231
MDA-MB-435 = system: MDA-MB-435
MDA-N = system: MDA-N
NCI-H226 = system: NCI-H226
NCI-H23 = system: NCI-H23
NCI-H460 = system: NCI-H460
NCI/ADR-RES = system: NCI/ADR-RES
OVCAR-4 = system: OVCAR-4
OVCAR-8 = system: OVCAR-8
RPMI-8226 = system: RPMI-8226
SF-268 = system: SF-268
SK-MEL-28 = system: SK-MEL-28
SN12C = system: SN12C
SNB-19 = system: SNB-19
SNB-75 = system: SNB-75
SR = system: SR
T47D = system: T47D
TK-10 = system: TK-10
U-251 = system: U-251
UACC-257 = system: UACC-257
UACC-62 = system: UACC-62
UO-31 = system: UO-31
A549 = system: A549
EKVX = system: EKVX
HOP-62 = system: HOP-62
HT-29 = system: HT-29
Hs-578T = system: Hs-578T
IGROV-1 = system: IGROV-1
K562 = system: K562
M14 = system: M14
MCF7 = system: MCF7
MOLT-4 = system: MOLT-4
Malme-3M = system: Malme-3M
NCI-H522 = system: NCI-H522
OVCAR-5 = system: OVCAR-5
PC-3 = system: PC-3
RXF 393 = system: RXF 393
SF-295 = system: SF-295
SF-539 = system: SF-539
SK-MEL-2 = system: SK-MEL-2
SK-MEL-5 = system: SK-MEL-5
SK-OV-3 = system: SK-OV-3
SW-620 = system: SW-620

CC1(C)C(=O)C2(N)CCC1C2 (stereo not given)
GI50 (786-0): > 100 µM (inactive)
GI50 (A498): > 10 µM (inactive)
GI50 (ACHN): > 100 µM (inactive)
GI50 (BT-549): > 100 µM (inactive)
GI50 (CAKI-1): > 100 µM (inactive)
GI50 (CCRF-CEM): > 100 µM (inactive)
GI50 (COLO 205): > 100 µM (inactive)
GI50 (DU-145): > 100 µM (inactive)
GI50 (HCC 2998): > 100 µM (inactive)
GI50 (HCT-116): > 100 µM (inactive)
GI50 (HCT-15): > 100 µM
GI50 (HOP-92): > 100 µM (inactive)
GI50 (KM12): > 100 µM (inactive)
GI50 (LOX IMVI): > 100 µM (inactive)
GI50 (MDA-MB-231): > 100 µM (inactive)
GI50 (MDA-MB-435): > 100 µM (inactive)
GI50 (MDA-N): > 100 µM (inactive)
GI50 (NCI-H226): > 100 µM (inactive)
GI50 (NCI-H23): > 100 µM (inactive)
GI50 (NCI-H460): > 100 µM (inactive)
GI50 (NCI/ADR-RES): > 100 µM (inactive)
GI50 (OVCAR-4): > 100 µM (inactive)
GI50 (OVCAR-8): > 100 µM (inactive)
GI50 (RPMI-8226): > 100 µM (inactive)
GI50 (SF-268): > 100 µM (inactive)
GI50 (SK-MEL-28): > 100 µM (inactive)
GI50 (SN12C): > 100 µM (inactive)
GI50 (SNB-19): > 100 µM (inactive)
GI50 (SNB-75): > 100 µM (inactive)
GI50 (SR): > 100 µM (inactive)
GI50 (T47D): > 100 µM (inactive)
GI50 (TK-10): > 100 µM (inactive)
GI50 (U-251): > 100 µM (inactive)
GI50 (UACC-257): > 100 µM (inactive)
GI50 (UACC-62): > 100 µM (inactive)
GI50 (UO-31): > 100 µM (inactive)

CSC(SC)=C1C(=O)N(c2ccccc2)N=C1C
GI50 (786-0): 23.2 µM (inactive)
GI50 (A498): 29.4 µM (inactive)
GI50 (A549): 30.8 µM (inactive)
GI50 (ACHN): 27.4 µM (inactive)
GI50 (BT-549): 21.6 µM (inactive)
GI50 (CAKI-1): 29 µM (inactive)
GI50 (CCRF-CEM): 18.5 µM (inactive)
GI50 (COLO 205): 19.9 µM (inactive)
GI50 (EKVX): 24 µM (inactive)
GI50 (HCC 2998): 46.6 µM (inactive)
GI50 (HCT-116): 22.9 µM (inactive)
GI50 (HCT-15): 24.1 µM
GI50 (HOP-62): 35.4 µM (inactive)
GI50 (HOP-92): 2.75 µM (inactive)
GI50 (HT-29): 35.8 µM (inactive)
GI50 (Hs-578T): 88.1 µM (inactive)
GI50 (IGROV-1): 29.3 µM (inactive)
GI50 (K562): 27.1 µM (inactive)
GI50 (KM12): 41.1 µM (inactive)
GI50 (LOX IMVI): 34 µM (inactive)
GI50 (M14): 20.6 µM (inactive)
GI50 (MCF7): 17.3 µM (inactive)
GI50 (MDA-MB-231): 33.8 µM (inactive)
GI50 (MDA-N): 34.8 µM (inactive)
GI50 (MOLT-4): 21.7 µM (inactive)
GI50 (Malme-3M): 21.7 µM (inactive)
GI50 (NCI-H226): 30.3 µM (inactive)
GI50 (NCI-H460): 23.9 µM (inactive)
GI50 (NCI-H522): 17.5 µM (inactive)
GI50 (NCI/ADR-RES): 31.2 µM (inactive)
GI50 (OVCAR-4): 34.3 µM (inactive)
GI50 (OVCAR-5): 29.5 µM (inactive)
GI50 (OVCAR-8): 33.8 µM (inactive)
GI50 (PC-3): 28.1 µM (inactive)
GI50 (RXF 393): 25 µM (inactive)
GI50 (SF-268): 61.1 µM (inactive)
GI50 (SF-295): 25.9 µM (inactive)
GI50 (SF-539): 36.7 µM (inactive)
GI50 (SK-MEL-2): 20 µM (inactive)
GI50 (SK-MEL-5): 10.3 µM (inactive)
GI50 (SK-OV-3): 29.2 µM (inactive)
GI50 (SN12C): 30.7 µM (inactive)
GI50 (SNB-19): 30.9 µM (inactive)
GI50 (SNB-75): 21.2 µM (inactive)
GI50 (SW-620): 32 µM (inactive)
GI50 (TK-10): 22.1 µM (inactive)
GI50 (U-251): 35.1 µM (inactive)
GI50 (UACC-257): 27.4 µM (inactive)
GI50 (UACC-62): 27 µM (inactive)

— ChEMBL document CHEMBL1201862, “PubChem BioAssay data set” (2004)
